Here are results for 13 compounds from US20220267269A1, “COMPOUNDS FOR THE MODULATION OF PROPROTEIN CONVERTASE SUBTILISIN/KEXIN TYPE 9 (PCSK9)” (SRX Cardio, LLC, priority 2019, published 2022).

The target of data set [1] is T1, PCSK9 (Homo sapiens, UniProt Q8NBP7).
T1 construct: purchased Cayman Chemical 20631
As to the kind of experiment: LDLR flow cytometric analysis (LDLR recovery in cells treated with recombinant PCSK9). The data set is classed as cell-based. On the procedure:
LDLR levels were measured using flow cytometry or fluorescence activated cell sorting (FACS) using protocols adapted from Benjannet et al., “Effects of the prosegment and pH on the activity of PCSK9: evidence for additional processing events” J Biol Chem. 285(52): 40965-40978 (2010) and “Composition and Methods of Use of Small Molecules as Binding Ligands for the Modulation of Proprotein Convertase Subtilisin/Kexin Type 9 (PCSK9) Protein Activity” (WO2016029037), which are incorporated by reference in their entirety.
Cells, such as HepG2, HuH7, FL83B, or a cell line transfected with a short-hairpin PCSK9 knockdown sequence such as HepG2/shPCSK9, HuH7/shPCSK9, or FL83B/shPCSK9 were cultured in media composed of complete, high glucose DMEM (Invitrogen) with 10% fetal bovine serum (Life Technologies), supplemented with penicillin-streptomycin (Life Technologies). Cells were plated in a 24-well plate, at 125 k cells/well, and cultured at 37° C. for 12-24 h. Culture media was removed and replaced with fresh culture media or culture media plus a predetermined amount of recombinant PCSK9 (for example, a final PCSK9 concentration of 5 μg/mL; Cayman Chemical, Ann Arbor, Mich., Catalog #20631). Wells evaluating test compounds were dosed with concentrations ranging from 0 nM to 100 μM.
Following an incubation period of 4-6 hours at 37° C., the media was removed and the cells rinsed by adding 0.5 ml of complete D-PBS (i.e., Dulbecco's phosphate buffered saline (D-PBS, Life Technologies) supplemented with 0.5% bovine serum albumin (BSA, Sigma) and 1 g/L glucose (Sigma)). The wash media was carefully aspirated, and cells released from the plate using 200 μL of TrypLE Express (Life Technologies) by incubating for 5-10 minutes at 37° C. The TrypLE-Cell suspension was inactivated by adding 100 μL of Fetal Bovine Serum, transferred to a v-bottom plate, and centrifuged at 250×gravity for 5 minutes. Following centrifugation, the supernatant was aspirated and the cell pellet is resuspended in 100 μL of complete D-PBS, and centrifuged at 250×gravity for 5 minutes. Following centrifugation, the supernatant was aspirated and the cell pellet was resuspended in 100 μL of antibody staining solution (600 μL of anti-LDLr-PE in complete D-PBS) and incubated on ice, protected from light, for 30 minutes. The cells were then pelleted by centrifugation, resuspended in 100 μL of 4′,6-Diamidino-2-phenylindole (DAPI, Cayman Chemical) or 7-aminoactinomycin D (7AAD, Life Technologies) staining solution to measure cell viability.
Cells were analyzed for both cell viability marker (dead cells) and LDLR in live cells using a flow cytometer per the manufacturer's operating manual. Cells incubated with small molecule compounds that are inhibitors of PCSK9 will be expected to show increased amounts of LDLR, relative to control (no compound) specimens, and cells incubated with small molecule compounds that are activators of PCSK9 will be expected to show decreased amounts of LDLR relative to control (no compound) specimens.
The percentage recovery in the LDLR assay at 10 μM concentration is provided as follows: +++: >80% recovery; ++: 40-80% recovery; +: 0-40% recovery.
The LDL-R EC50 is provided as follows: +++: <1; ++: 1 μM-5 μM; +: >5 μM.
On the technique in general: In flow cytometry, cells or beads pass a laser one at a time.

Data set [2] has as its target T1, PCSK9. As to the kind of experiment: Fluorescent-LDL uptake analysis by flow cytometric analysis. Type of data set: cell-based. On the procedure:
Cells, such as HuH7, FL83B, or a cell line transfected with a short-hairpin PCSK9 knockdown sequence such as HuH7/shPCSK9 or FL83B/shPCSK9 were plated and cultured at 37° C. for 12-24 h. Culture media was removed and replaced with fresh lipoprotein-depleted culture media supplemented with 5 μg/mL of fluorescently labeled LDL or lipoprotein-depleted culture media supplemented with 5 μg/mL of fluorescently labeled LDL plus a concentration of recombinant PCSK9 (for example 5 μg/mL recombinant PCSK9; Cayman Chemical, Cat. #20631). Examples of fluorescently labeled LDL include: DiI-LDL (Kalen Biomedical), or LDL conjugated to Dylight (e.g., LDL-Dylight 488, or LDL-Dylight 550 (Cayman Chemical, Cat. #10011229)). Lipoprotein-depleted culture media was composed of DMEM (Invitrogen) with 10% lipoprotein-depleted fetal bovine serum (Kalen Biomedical) and supplemented with penicillin-streptomycin (Life Technologies). Cells were dosed with small molecule test compounds at doses ranging from 0 nM to 100 μM, following a protocol adapted from Benjannet et al., “Effects of the prosegment and pH on the activity of PCSK9: evidence for additional processing events” J Biol Chem. 285(52):40965-40978 (2010), which is incorporated by reference in its entirety.
Following an incubation period of specified length, such as 16 hours, the lipoprotein-depleted media was removed and cells rinsed three times with a rinse solution (Dulbecco's phosphate buffered saline (D-PBS, Life Technologies), supplemented with 0.5% bovine serum albumin (BSA, Sigma) and 1 g/L glucose (Sigma)). The fluid was then removed, and cells are released from the plate using TrypLE Express (Life Technologies) per manufacturer's recommended procedures, such as incubation for 5-10 minutes at 37° C. The TyrpLE-Cell suspension was then transferred to 15 mL conical tubes, volume was increased to 2 mL with D-PBS supplemented with 0.5% BSA, and […], and the tubes were centrifuged at 250×gravity for 10 minutes. Following centrifugation, the supernatant was aspirated and the cell pellet was resuspended in 300 μL PBS and counterstained with 4′,6-diamidino-2-phenylindole (DAPI, Cayman Chemical) as a cell viability marker, other cell viability markers such as 7-aminoactinomycin D (7AAD, Life Technologies) have also been described in the art.
Cells were analyzed by for both 7AAD (dead cells) and fluorescent LDL in live cells using a flow cytometer per the manufacturer's operating manual. Cells incubated with small molecule compounds that are inhibitors of PCSK9 will be expected to show increased amounts of LDL fluorescence, relative to control (no compound) specimens, and cells incubated with small molecule compounds that are activators of PCSK9 will be expected to show decreased amounts of LDL fluorescence relative to control (no compound) specimens.
The LDL-uptake EC50 is provided as follows: +++: <0.5 μM; ++: 0.5-1μM; +: >1 μM.

Data set [3] has as its target T1, PCSK9. As to the kind of experiment: Biodesy direct binding measurement (second harmonic generation). As to conditions: Biodesy Delta System. An excerpt:
Direct binding can be measured using the commercially available Biodesy Delta System (BDS, http://www.biodesy.com/products/; accessed Aug. 1, 2018). The BDS is a laser-based approach that utilizes second harmonic generation from a labeled protein to detect ligand binding, the method of which is covered and described by U.S. Pat. Nos. 9,395,358 and 8,932,822, and has been commercialized by Biodesy Inc. (South San Francisco, Calif.).

Data set [4] is described as follows: Microsomal stability analysis, mouse. Type of data set: in vitro ADME. As to conditions: pH 7.4; mouse liver microsomes, 1 μM test compound; read-out: Microsomal Stability t1/2. The protocol:
(§1) Microsomal stability was determined as follows:
(§2) The assay was carried out in 96-well microtiter plates at 37° C. Reaction mixtures (25 μL) contained a final concentration of 1 μM test compound, 0.5 mg/mL liver microsomes protein, and 1 mM NADPH and/or 1 mM UDPGA (with alamethicin) in 100 mM potassium phosphate, pH 7.4 buffer with 3 mM MgCl2. At each of the time points (for example, 0, 15, 30, and 60 minutes), 150 μL of quench solution (100% acetonitrile with 0.1% formic acid) with internal standard was transferred to each well. Besides the zero minute controls, mixtures containing the same components except the NADPH can also be prepared as the negative control. Verapamil was included as a positive control to verify assay performance. Plates were sealed, vortexed, and centrifuged at 4° C. for 15 minutes at 4000 rpm. The supernatant was transferred to fresh plates for LC/MS/MS analysis. The extent of metabolism was calculated as the disappearance of the test compound, compared to the 0-min time incubation. Initial rates were calculated for the compound concentration and used to determine t½ values.

Data set [5] can be described thus: Microsomal stability analysis, rat. The data set is classed as in vitro ADME. As to conditions: pH 7.4; rat liver microsomes, 1 μM test compound; read-out: Microsomal Stability t1/2. The protocol: as §1, §2
(Microsomes from liver hold many membrane-bound enzymes, among them those of drug oxidation.)

Data set [6] is described as follows: Microsomal stability analysis, human. The data set is classed as in vitro ADME. As to conditions: pH 7.4; human liver microsomes, 1 μM test compound; read-out: Microsomal Stability t1/2. The protocol: as §1, §2

T1 sequence (Q8NBP7 153-692): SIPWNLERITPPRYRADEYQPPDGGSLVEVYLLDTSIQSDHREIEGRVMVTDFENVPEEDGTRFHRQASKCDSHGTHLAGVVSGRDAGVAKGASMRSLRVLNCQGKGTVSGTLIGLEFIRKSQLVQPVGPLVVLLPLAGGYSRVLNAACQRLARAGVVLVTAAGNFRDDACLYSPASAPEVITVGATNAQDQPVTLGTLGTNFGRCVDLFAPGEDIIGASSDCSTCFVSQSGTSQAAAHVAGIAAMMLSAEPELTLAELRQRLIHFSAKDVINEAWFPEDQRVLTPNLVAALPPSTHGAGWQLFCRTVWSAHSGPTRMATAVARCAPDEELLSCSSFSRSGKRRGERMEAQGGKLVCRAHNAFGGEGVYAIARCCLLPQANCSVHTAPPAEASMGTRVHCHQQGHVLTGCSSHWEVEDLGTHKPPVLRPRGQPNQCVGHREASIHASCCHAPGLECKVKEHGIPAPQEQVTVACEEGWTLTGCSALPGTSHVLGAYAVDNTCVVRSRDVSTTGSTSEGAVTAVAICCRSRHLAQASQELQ

Regarding `c1ccc(-c2ccc(C3CCCN(C4CCCC4)C3)cc2)cc1` (stereo not shown) [1,003, 3-([1,1′-biphenyl]-4-yl)-1-cyclopentylpiperidine], the EC50 on PCSK9 [1] was in the range of 1 to 5 µM.

As for `c1cc(-c2ccc(C3CCCN(CC4CCCC4)C3)cc2)ccn1` (stereo not shown) [1,005, 4-(4-(1-(cyclopentylmethyl)piperidin-3-yl)phenyl) pyridine], the EC50 on PCSK9 [1] is 1 to 5 µM.

For `FC(F)(F)c1cccc(-c2ccc(C3CCCN(CC4CCCC4)C3)cc2)c1` (stereo not shown) [1,013, 1-(cyclopentylmethyl)-3-(3′-(trifluoromethyl)-[1,1′-biphenyl]-4-yl)piperidine], at PCSK9 [2], the EC50 is above 1 µM.

Consider `FC(F)(F)c1cc(C2CCCN(CC3CCOC3)C2)ccc1-c1ccccc1` (stereo not shown) [1,027, 1-((tetrahydrofuran-3-yl)methyl)-3-(2-(trifluoromethyl)-[1,1′-biphenyl]-4-yl)piperidine], for which, on PCSK9 [2], the EC50 was above 1 µM.

As to `Fc1cc(F)cc(-c2ccc(C3CCCN(CC4CCCC4)C3)cc2)c1` (stereo not shown) [1,029, 1-(cyclopentylmethyl)-3-(3′,5′-difluoro-[1,1′-biphenyl]-4-yl)piperidine], the EC50 at PCSK9 [2] was in the range of 0.5 to 1 µM.

Turning to `Cc1cc(-c2ccc(Cl)cc2)ccc1C1CCCN(CC2CCCC2)C1` (stereo not shown) [1,039, 3-(4′-chloro-3-methyl-[1,1′-biphenyl]-4-yl)-1-(cyclopentylmethyl) piperidine], the EC50 on PCSK9 [2] fell in the range of 0.5 to 1 µM.

In turn, `Cc1cc(C2CCCN(C3CCCC3)C2)ccc1-c1ccc(Cl)cc1` (stereo not shown) [1,040, 3-(4′-chloro-2-methyl-[1,1′-biphenyl]-4-yl)-1-cyclopentylpiperidine] showed an EC50 on PCSK9 [2] of 0.5 to 1 µM.

With `Fc1ccc(-c2ccc(C3CCCN(CC4CC4)C3)cc2)cc1` (stereo not shown) [Compound 1,001, 1-(cyclopropylmethyl)-3-(4′-fluoro-[1,1′-biphenyl]-4-yl)piperidine], on PCSK9 [1], the EC50 is 1 to 5 µM. On PCSK9 [3], the ΔSHG is on record as above 10%. The half-life at 1 μM in data set [4] was 25 min; in data set [5] it was 10 min; in data set [6], above 120 min.

Consider `c1ccc(-c2ccc(C3CCCN(CC4CCCC4)C3)cc2)cc1` (stereo not shown) [Compound 1,006, 3-([1,1′-biphenyl]-4-yl)-1-(cyclopentylmethyl)piperidine], for which the EC50 on PCSK9 [1] fell in the range of 1 to 5 µM; on PCSK9 [2], 0.5 to 1 µM. Further, the half-life at 1 μM stood at 28 min in data set [4], 13 min in data set [5] and 22 min in data set [6].

Take `Fc1ccc(-c2ccc(C3CCCN(CC4CCCC4)C3)cc2)cc1` (stereo not shown) [Compound 1,009, 1-(cyclopentylmethyl)-3-(4′-fluoro-[1,1′-biphenyl]-4-yl)piperidine]: the EC50 is 1 to 5 µM on PCSK9 [1] and below 0.5 µM on PCSK9 [2]. For the same compound, the half-life at 1 μM in data set [4] worked out at 67 min; in data set [5] it was 13 min; in data set [6], 86 min.

Regarding `Clc1ccc(-c2ccc(C3CCCN(CC4CCCC4)C3)cc2)cc1` (stereo not shown) [Compound 1,010, 3-(4′-chloro-[1,1′-biphenyl]-4-yl)-1-(cyclopentylmethyl)piperidine], the EC50 on PCSK9 [1] was above 5 µM; at PCSK9 [2], below 0.5 µM. The figures for the half-life at 1 μM in data set [4], in data set [5] and in data set [6] were 76 min, 15 min and above 120 min, respectively.

`FC(F)(F)c1ccc(-c2ccc(C3CCCN(CC4CCCC4)C3)cc2)cc1` (stereo not shown) [Compound 1,011, 1-(cyclopentylmethyl)-3-(4′-(trifluoromethyl)-[1,1′-biphenyl]-4-yl)piperidine]: the results for the EC50 on PCSK9 [1] and on PCSK9 [2] were below 1 µM and below 0.5 µM, respectively. Besides, the half-life at 1 μM in data set [4] is 61 min; in data set [5] it was 17 min; in data set [6] it was above 120 min.

`Fc1ccc(-c2ccc(C3CCCN(Cc4ccccc4)C3)cc2)cc1` (stereo not shown) [Compound 1,035, 1-benzyl-3-(4′-fluoro-[1,1′-biphenyl]-4-yl)piperidine]: the EC50 on PCSK9 [1] was above 5 µM; on PCSK9 [2], 0.5 to 1 µM.

In general, EC50 refers to the midpoint of the concentration-response curve.
